According to patent publication US10765114B2, “4-amino-6-(pyridyl and 2-substitutedphenyl)-picolinates and 6-amino-2-(pyridyl and 2-substitutedphenyl)-pyrimidine-4-carboxylates and their use as herbicides” (Dow AgroSciences LLC, priority 2013, dated 2020):

Test system: Key Broadleaf Weed and Crop Species
Assay: Post-Emergent Test II (Table 5)
Type: in vivo
Details: Abutilon theophrasti, post-emergence, 336 h, ABUTH: velvetleaf (Abutilon theophrasti), application rate 70 (kg ai/ha; footnote: g ai/ha), read-out: Visual Growth Reduction (%) 14 Days After Application ABUTH
Procedure, shortened: (§1)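 Plants at first or second true-leaf stage, grown 7-21 days in greenhouse, were sprayed post-emergence at 187 L/ha with compounds in acetone/DMSO/water/crop oil/surfactant mixture at the high rate and ½× to 1/16× dilutions. Injury scored visually after 14 days, 0 (none) to 100% (complete kill), versus untreated plants.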

Question: With COC(=O)c1nc(-c2ccc(Cl)c(F)c2C)cc(N)c1Cl [Compound 73] as the molecule, how does the pest or weed control at 70 g/ha read?
Answer: 95 to 100%

Same assay, conditions: Abutilon theophrasti, post-emergence, 336 h, ABUTH: velvetleaf (Abutilon theophrasti), application rate 140 (kg ai/ha; footnote: g ai/ha), read-out: Visual Growth Reduction (%) 14 Days After Application ABUTH

Question: For COC(=O)c1nc(-c2ccc(Cl)c(F)c2C)cc(N)c1Cl [Compound 73], which pest or weed control at 140 g/ha is on record?
Answer: 95 to 100%

Same assay, conditions: Amaranthus retroflexus, post-emergence, 336 h, AMARE: redroot pigweed (Amaranthus retroflexus), application rate 70 (kg ai/ha; footnote: g ai/ha), read-out: Visual Growth Reduction (%) 14 Days After Application AMARE

Question: For COC(=O)c1nc(-c2ccc(Cl)c(F)c2C)cc(N)c1Cl [Compound 73], which pest or weed control at 70 g/ha is on record?
Answer: 95 to 100%

Same assay, conditions: Amaranthus retroflexus, post-emergence, 336 h, AMARE: redroot pigweed (Amaranthus retroflexus), application rate 140 (kg ai/ha; footnote: g ai/ha), read-out: Visual Growth Reduction (%) 14 Days After Application AMARE

Question: For COC(=O)c1nc(-c2ccc(Cl)c(F)c2C)cc(N)c1Cl [Compound 73], which pest or weed control at 140 g/ha is on record?
Answer: 95 to 100%

Same assay, conditions: Brassica napus, post-emergence, 336 h, BRSSS: oilseed rape, canola (Brassica napus), application rate 70 (kg ai/ha; footnote: g ai/ha), read-out: Visual Growth Reduction (%) 14 Days After Application BRSSS

Question: For COC(=O)c1nc(-c2ccc(Cl)c(F)c2C)cc(N)c1Cl [Compound 73], which pest or weed control at 70 g/ha is on record?
Answer: 95 to 100%

Same assay, conditions: Brassica napus, post-emergence, 336 h, BRSSS: oilseed rape, canola (Brassica napus), application rate 140 (kg ai/ha; footnote: g ai/ha), read-out: Visual Growth Reduction (%) 14 Days After Application BRSSS

Question: With COC(=O)c1nc(-c2ccc(Cl)c(F)c2C)cc(N)c1Cl [Compound 73] as the molecule, how does the pest or weed control at 140 g/ha read?
Answer: 95 to 100%

Same assay, conditions: Chenopodium album, post-emergence, 336 h, CHEAL: lambsquarters (Chenopodium album), application rate 70 (kg ai/ha; footnote: g ai/ha), read-out: Visual Growth Reduction (%) 14 Days After Application CHEAL

Question: Which pest or weed control at 70 g/ha does the source give for COC(=O)c1nc(-c2ccc(Cl)c(F)c2C)cc(N)c1Cl [Compound 73] here?
Answer: 95 to 100%

Same assay, conditions: Chenopodium album, post-emergence, 336 h, CHEAL: lambsquarters (Chenopodium album), application rate 140 (kg ai/ha; footnote: g ai/ha), read-out: Visual Growth Reduction (%) 14 Days After Application CHEAL

Question: For COC(=O)c1nc(-c2ccc(Cl)c(F)c2C)cc(N)c1Cl [Compound 73], which pest or weed control at 140 g/ha is on record?
Answer: 95 to 100%

Same assay, conditions: Euphorbia heterophylla, post-emergence, 336 h, EPHHL: wild poinsettia (Euphorbia heterophylla), application rate 70 (kg ai/ha; footnote: g ai/ha), read-out: Visual Growth Reduction (%) 14 Days After Application EPHHL

Question: Which pest or weed control at 70 g/ha does the source give for COC(=O)c1nc(-c2ccc(Cl)c(F)c2C)cc(N)c1Cl [Compound 73] here?
Answer: 75 to 84%

Same assay, conditions: Euphorbia heterophylla, post-emergence, 336 h, EPHHL: wild poinsettia (Euphorbia heterophylla), application rate 140 (kg ai/ha; footnote: g ai/ha), read-out: Visual Growth Reduction (%) 14 Days After Application EPHHL

Question: With COC(=O)c1nc(-c2ccc(Cl)c(F)c2C)cc(N)c1Cl [Compound 73] as the molecule, how does the pest or weed control at 140 g/ha read?
Answer: 75 to 84%

Same assay, conditions: Helianthus annuus, post-emergence, 336 h, HELAN: sunflower (Helianthus annuus), application rate 70 (kg ai/ha; footnote: g ai/ha), read-out: Visual Growth Reduction (%) 14 Days After Application HELAN

Question: With COC(=O)c1nc(-c2ccc(Cl)c(F)c2C)cc(N)c1Cl [Compound 73] as the molecule, how does the pest or weed control at 70 g/ha read?
Answer: 95 to 100%

Same assay, conditions: Helianthus annuus, post-emergence, 336 h, HELAN: sunflower (Helianthus annuus), application rate 140 (kg ai/ha; footnote: g ai/ha), read-out: Visual Growth Reduction (%) 14 Days After Application HELAN

Question: Which pest or weed control at 140 g/ha does the source give for COC(=O)c1nc(-c2ccc(Cl)c(F)c2C)cc(N)c1Cl [Compound 73] here?
Answer: 95 to 100%

Same assay, conditions: Viola tricolor, post-emergence, 336 h, VIOTR: wild pansy (Viola tricolor), application rate 70 (kg ai/ha; footnote: g ai/ha), read-out: Visual Growth Reduction (%) 14 Days After Application VIOTR

Question: With COC(=O)c1nc(-c2ccc(Cl)c(F)c2C)cc(N)c1Cl [Compound 73] as the molecule, how does the pest or weed control at 70 g/ha read?
Answer: 85 to 94%

Same assay, conditions: Viola tricolor, post-emergence, 336 h, VIOTR: wild pansy (Viola tricolor), application rate 140 (kg ai/ha; footnote: g ai/ha), read-out: Visual Growth Reduction (%) 14 Days After Application VIOTR

Question: For COC(=O)c1nc(-c2ccc(Cl)c(F)c2C)cc(N)c1Cl [Compound 73], which pest or weed control at 140 g/ha is on record?
Answer: 95 to 100%

Test system: Key Grass and Sedge Weeds as well as Grass Crops
Assay: Post-Emergent Test II (Table 6)
Type: in vivo
Details: post-emergence, 336 h, CYPSS, 70 g ai/ha, 14 days after application, read-out: Visual Growth Reduction (%) 14 Days After Application CYPSS
Procedure, shortened: as §1

Question: With COC(=O)c1nc(-c2ccc(Cl)c(F)c2C)cc(N)c1Cl [Compound 73] as the molecule, how does the pest or weed control at 70 g/ha read?
Answer: 95 to 100%

Same assay, conditions: post-emergence, 336 h, CYPSS, 140 g ai/ha, 14 days after application, read-out: Visual Growth Reduction (%) 14 Days After Application CYPSS

Question: Which pest or weed control at 140 g/ha does the source give for COC(=O)c1nc(-c2ccc(Cl)c(F)c2C)cc(N)c1Cl [Compound 73] here?
Answer: 95 to 100%

Same assay, conditions: post-emergence, 336 h, DIGSA: crabgrass (Digitaria sanguinalis), 70 g ai/ha, 14 days after application, read-out: Visual Growth Reduction (%) 14 Days After Application DIGSA

Question: With COC(=O)c1nc(-c2ccc(Cl)c(F)c2C)cc(N)c1Cl [Compound 73] as the molecule, how does the pest or weed control at 70 g/ha read?
Answer: 0 to 29%

Same assay, conditions: post-emergence, 336 h, DIGSA: crabgrass (Digitaria sanguinalis), 140 g ai/ha, 14 days after application, read-out: Visual Growth Reduction (%) 14 Days After Application DIGSA

Question: For COC(=O)c1nc(-c2ccc(Cl)c(F)c2C)cc(N)c1Cl [Compound 73], which pest or weed control at 140 g/ha is on record?
Answer: 0 to 29%

Same assay, conditions: post-emergence, 336 h, ECHSS, 70 g ai/ha, 14 days after application, read-out: Visual Growth Reduction (%) 14 Days After Application ECHSS

Question: With COC(=O)c1nc(-c2ccc(Cl)c(F)c2C)cc(N)c1Cl [Compound 73] as the molecule, how does the pest or weed control at 70 g/ha read?
Answer: 30 to 44%

Same assay, conditions: post-emergence, 336 h, ECHSS, 140 g ai/ha, 14 days after application, read-out: Visual Growth Reduction (%) 14 Days After Application ECHSS

Question: With COC(=O)c1nc(-c2ccc(Cl)c(F)c2C)cc(N)c1Cl [Compound 73] as the molecule, how does the pest or weed control at 140 g/ha read?
Answer: 45 to 59%

Same assay, conditions: post-emergence, 336 h, ORYSS (crop), 70 g ai/ha, 14 days after application, read-out: Visual Growth Reduction (%) 14 Days After Application ORYSS

Question: With COC(=O)c1nc(-c2ccc(Cl)c(F)c2C)cc(N)c1Cl [Compound 73] as the molecule, how does the pest or weed control at 70 g/ha read?
Answer: 0 to 29%

Same assay, conditions: post-emergence, 336 h, ORYSS (crop), 140 g ai/ha, 14 days after application, read-out: Visual Growth Reduction (%) 14 Days After Application ORYSS

Question: Which pest or weed control at 140 g/ha does the source give for COC(=O)c1nc(-c2ccc(Cl)c(F)c2C)cc(N)c1Cl [Compound 73] here?
Answer: 0 to 29%

Same assay, conditions: post-emergence, 336 h, SETFA: giant foxtail (Setaria faberi), 70 g ai/ha, 14 days after application, read-out: Visual Growth Reduction (%) 14 Days After Application SETFA

Question: Which pest or weed control at 70 g/ha does the source give for COC(=O)c1nc(-c2ccc(Cl)c(F)c2C)cc(N)c1Cl [Compound 73] here?
Answer: 30 to 44%

Same assay, conditions: post-emergence, 336 h, SETFA: giant foxtail (Setaria faberi), 140 g ai/ha, 14 days after application, read-out: Visual Growth Reduction (%) 14 Days After Application SETFA

Question: Which pest or weed control at 140 g/ha does the source give for COC(=O)c1nc(-c2ccc(Cl)c(F)c2C)cc(N)c1Cl [Compound 73] here?
Answer: 45 to 59%

Same assay, conditions: post-emergence, 336 h, SORVU: grain sorghum (Sorghum vulgare), 70 g ai/ha, 14 days after application, read-out: Visual Growth Reduction (%) 14 Days After Application SORVU

Question: Which pest or weed control at 70 g/ha does the source give for COC(=O)c1nc(-c2ccc(Cl)c(F)c2C)cc(N)c1Cl [Compound 73] here?
Answer: 45 to 59%

Same assay, conditions: post-emergence, 336 h, SORVU: grain sorghum (Sorghum vulgare), 140 g ai/ha, 14 days after application, read-out: Visual Growth Reduction (%) 14 Days After Application SORVU

Question: For COC(=O)c1nc(-c2ccc(Cl)c(F)c2C)cc(N)c1Cl [Compound 73], which pest or weed control at 140 g/ha is on record?
Answer: 60 to 74%

Same assay, conditions: post-emergence, 336 h, TRZSS (crop), 70 g ai/ha, 14 days after application, read-out: Visual Growth Reduction (%) 14 Days After Application TRZSS

Question: Which pest or weed control at 70 g/ha does the source give for COC(=O)c1nc(-c2ccc(Cl)c(F)c2C)cc(N)c1Cl [Compound 73] here?
Answer: 45 to 59%

Same assay, conditions: post-emergence, 336 h, TRZSS (crop), 140 g ai/ha, 14 days after application, read-out: Visual Growth Reduction (%) 14 Days After Application TRZSS

Question: For COC(=O)c1nc(-c2ccc(Cl)c(F)c2C)cc(N)c1Cl [Compound 73], which pest or weed control at 140 g/ha is on record?
Answer: 60 to 74%

Same assay, conditions: post-emergence, 336 h, ZEAMX: maize, corn (Zea mays), 70 g ai/ha, 14 days after application, read-out: Visual Growth Reduction (%) 14 Days After Application ZEAMX

Question: Which pest or weed control at 70 g/ha does the source give for COC(=O)c1nc(-c2ccc(Cl)c(F)c2C)cc(N)c1Cl [Compound 73] here?
Answer: 60 to 74%

Same assay, conditions: post-emergence, 336 h, ZEAMX: maize, corn (Zea mays), 140 g ai/ha, 14 days after application, read-out: Visual Growth Reduction (%) 14 Days After Application ZEAMX

Question: Which pest or weed control at 140 g/ha does the source give for COC(=O)c1nc(-c2ccc(Cl)c(F)c2C)cc(N)c1Cl [Compound 73] here?
Answer: 75 to 84%

Test system: not given
Assay: not given
Details: not given

Question: For COC(=O)c1nc(-c2ccc(Cl)c(F)c2C)cc(N)c1Cl [Compound 73], which melting point is on record?
Answer: 128 to 134 °C
